From US20060069132A1, “Azolecarboxamide herbicides” (priority 2004, published 2006)

Assays:
pigweed = experiment: Test C pre-/postemergence herbicide test; format: in vivo, Amaranthus retroflexus; conditions: for Pigweed plant response rating: Preemergence, scale 0 to 100, 0 no effect, 100 complete control
In short: (§1)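 Greenhouse-grown plants were evaluated visually 12 to 14 days after treatment, with 100 meaning complete control and 0 no effect. Application was preemergence, or postemergence at 2 to 18 cm.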

giant foxtail = experiment: Test C pre-/postemergence herbicide test; format: in vivo, Setaria faberi; conditions: for Foxtail, Giant plant response rating: Preemergence, scale 0 to 100, 0 no effect, 100 complete control
In short: as §1

goosegrass = experiment: Test C pre-/postemergence herbicide test; format: in vivo, Eleusine indica; conditions: for Goosegrass plant response rating: Preemergence, scale 0 to 100, 0 no effect, 100 complete control
In short: as §1

barnyardgrass = experiment: Test C flooded paddy test; format: in vivo, Echinochloa crus-galli; conditions: for Plant response rating, Barnyardgrass: 500 g ai/ha, visual rating after 12 to 14 days
In short: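 Visual rating, 0 (no effect) to 100 (complete control), vs. controls at 12–14 d in greenhouse. Postemergence: 1–4-leaf plants, 2–18 cm. Paddy: flooded, barnyardgrass at 2-leaf stage.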

lambsquarters = experiment: Test C pre-/postemergence herbicide test; format: in vivo, Chenopodium album; conditions: for Lambsquarters plant response rating: Preemergence, scale 0 to 100, 0 no effect, 100 complete control
In short: as §1

rice [1] = experiment: Test B pre-/postemergence herbicide test; format: in vivo, Oryza sativa
In short: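 Seeds were planted and treated preemergence with compounds formulated in a non-phytotoxic solvent mixture containing surfactant, while plants at the 1- to 4-leaf stage (2 to 18 cm) received postemergence sprays. Flooded paddy plants were grown to the 2-leaf stage. After 13 to 15 days in a greenhouse, injury was visually rated 0–100 against untreated controls.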

rice [2] = experiment: Test C flooded paddy test; format: in vivo, Oryza sativa; conditions: for Plant response rating, Rice: 500 g ai/ha, visual rating after 12 to 14 days
In short: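 Plants were grown to the 1- to 4-leaf stage (2–18 cm) and then treated postemergence, or grown to the 2-leaf stage for the flooded paddy test. They were held in a greenhouse for 12 to 14 days and then scored by eye against controls, where 0 is no effect and 100 is complete control.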

[3] = 62 g ai/ha, preemergence, scale 0 to 100
[4] = 125 g ai/ha, scale 0 (no effect) to 100 (complete control), visual, 12 to 14 days, preemergence
[5] = 250 g ai/ha, scale 0-100, preemergence
[6] = 500 g ai/ha, scale 0 to 100 (0 no effect, 100 complete control), visual, 12 to 14 days, preemergence
[7] = 62 g ai/ha, scale 0 to 100 (0 no effect, 100 complete control)
[8] = 125 g ai/ha, scale 0 to 100 (0 no effect, 100 complete control)
[9] = 250 g ai/ha, scale of 0 to 100, 0 is no effect, 100 is complete control
[10] = scale 0 to 100 (0 no effect, 100 complete control)
[11] = 250 g ai/ha, scale 0 to 100 (0 no effect, 100 complete control), visual, 12 to 14 days, preemergence
[12] = 125 g ai/ha, scale of 0 to 100, 0 is no effect, 100 is complete control
[13] = preemergence, 125 g ai/ha, 0 to 100 scale, 0 is no effect, 100 is complete control

CCN(C)C(=O)c1ccc(F)c(NC(=O)C2CC(C(C)(C)C)=NN2CC)c1 (racemic) [Compound 307]
Plant response rating, Pigweed (pigweed; [3]): 100
Plant response rating, Pigweed (pigweed; [4]): 100
Plant response rating, Pigweed (pigweed; [5]): 100
Plant response rating, Pigweed (pigweed; [6]): 100
Plant response rating, Foxtail, Giant (giant foxtail; [3]): 70
Plant response rating, Foxtail, Giant (giant foxtail; [4]): 85
Plant response rating, Foxtail, Giant (giant foxtail; [5]): 100
Plant response rating, Foxtail, Giant (giant foxtail; [6]): 100
Plant response rating, Goosegrass (goosegrass; [3]): 90
Plant response rating, Goosegrass (goosegrass; [4]): 95
Plant response rating, Goosegrass (goosegrass; [5]): 100
Plant response rating, Goosegrass (goosegrass; [6]): 100
Barnyardgrass plant response rating (barnyardgrass; [7]): 30
Barnyardgrass plant response rating (barnyardgrass; [8]): 65
Barnyardgrass plant response rating (barnyardgrass; [9]): 80
Plant response rating, Barnyardgrass (barnyardgrass; [10]): 95
Plant response rating, Lambsquarters (lambsquarters; [3]): 100
Plant response rating, Lambsquarters (lambsquarters; [4]): 100
Plant response rating, Lambsquarters (lambsquarters; [5]): 100
Plant response rating, Lambsquarters (lambsquarters; [6]): 100
Rice plant response rating (0 to 100 scale) (rice [1]; 125 g ai/ha, 0 = no effect, 100 = complete control, preemergence): 80
Plant response rating, Rice (rice [1]; 500 g ai/ha, visual rating, 0 = no effect, 100 = complete control, preemergence): 90
Rice plant response rating (rice [2]; 62 g ai/ha, scale 0 to 100): 55
Rice plant response rating (rice [2]; [8]): 60
Rice plant response rating (rice [2]; [9]): 65
Plant response rating, Rice (rice [2]; [10]): 80

CCN(C)C(=O)c1cccc(NC(=O)c2cc(C(C)(C)C)nn2CC)c1 [Compound 48]
Plant response rating (0 = no effect, 100 = complete control), Pigweed (pigweed; 62 g ai/ha, preemergence): 100
Plant response rating, Pigweed (pigweed; [4]): 100
Plant response rating, Pigweed (pigweed; [11]): 100
Pigweed plant response rating (pigweed; 500 g ai/ha): 100
Plant response rating (0 = no effect, 100 = complete control), Foxtail, Giant (giant foxtail; 62 g ai/ha, preemergence): 0
Plant response rating, Foxtail, Giant (giant foxtail; [4]): 0
Plant response rating, Foxtail, Giant (giant foxtail; [11]): 10
Foxtail, Giant plant response rating (giant foxtail; 500 g ai/ha): 50
Plant response rating (0 = no effect, 100 = complete control), Goosegrass (goosegrass; 62 g ai/ha, preemergence): 20
Plant response rating, Goosegrass (goosegrass; [4]): 70
Plant response rating, Goosegrass (goosegrass; [11]): 90
Goosegrass plant response rating (goosegrass; 500 g ai/ha): 90
Barnyardgrass plant response rating (barnyardgrass; 16 g ai/ha, scale 0 to 100): 0
Barnyardgrass plant response rating (barnyardgrass; 31 g ai/ha, scale 0 to 100): 0
Barnyardgrass plant response rating (barnyardgrass; [7]): 0
Barnyardgrass plant response rating (barnyardgrass; [12]): 0
Plant response rating (0 = no effect, 100 = complete control), Lambsquarters (lambsquarters; 62 g ai/ha, preemergence): 85
Plant response rating, Lambsquarters (lambsquarters; [4]): 95
Plant response rating, Lambsquarters (lambsquarters; [11]): 95
Lambsquarters plant response rating (lambsquarters; 500 g ai/ha): 95
Rice plant response rating (rice [1]; Preemergence, 500 g ai/ha, scale 0 to 100): 60
Plant response rating, Rice (rice [1]; [13]): 10
Rice plant response rating (rice [2]; 16 g ai/ha, scale 0 to 100): 0
Rice plant response rating (rice [2]; 31 g ai/ha, scale 0 to 100): 0
Rice plant response rating (rice [2]; [7]): 0
Rice plant response rating (rice [2]; [12]): 20

CCn1nc(C(C)(C)C)cc1C(=O)Nc1cccc(C(N)=O)n1 [Compound 162, 6-[[[3-(1,1-dimethylethyl)-1-ethyl-1H-pyrazol-5-yl]carbonyl]amino]-2-pyridinecarboxamide]
Plant response rating, Pigweed (pigweed; [3]): 100
Plant response rating, Pigweed (pigweed; [4]): 100
Pigweed plant response rating (pigweed; 500 g ai/ha): 100
Plant response rating, Foxtail, Giant (giant foxtail; [3]): 55
Plant response rating, Foxtail, Giant (giant foxtail; [4]): 60
Plant response rating, Foxtail, Giant (giant foxtail; [11]): 60
Foxtail, Giant plant response rating (giant foxtail; 500 g ai/ha): 75
Plant response rating, Goosegrass (goosegrass; [3]): 60
Plant response rating, Goosegrass (goosegrass; [4]): 60
Goosegrass plant response rating (goosegrass; 500 g ai/ha): 80
Barnyardgrass plant response rating (barnyardgrass; [7]): 45
Barnyardgrass plant response rating (barnyardgrass; [12]): 65
Barnyardgrass plant response rating (barnyardgrass; [9]): 75
Plant response rating, Barnyardgrass (barnyardgrass; [10]): 90
Plant response rating, Lambsquarters (lambsquarters; [3]): 80
Plant response rating, Lambsquarters (lambsquarters; [4]): 95
Lambsquarters plant response rating (lambsquarters; 500 g ai/ha): 100
Plant response rating, Rice (rice [1]; 500 g ai/ha, visual rating 0-100, 0 no effect, 100 complete control, preemergence): 90
Plant response rating, Rice (rice [1]; [13]): 90
Rice plant response rating (rice [2]; [7]): 55
Rice plant response rating (rice [2]; [8]): 60
Rice plant response rating (rice [2]; [9]): 70
Plant response rating, Rice (rice [2]; [10]): 75
